This is an account of results in patent US9409893B2, “Heteroaryl derivatives and uses thereof” (Jacobus Pharmaceutical Company, Inc., priority 2012, dated 2016).

Structures can show the parent of a compound that is named as a salt. Where two headings read alike, the source gives them in different places.

As a reminder, the IC50 is the concentration that inhibits the measured activity by half.

One test deals with P. falciparum strain D6. Description: [3H]-hypoxanthine growth inhibition assay, P. falciparum D6. The test is classed as cell-based. The settings on record: Plasmodium falciparum. The procedure: (§1) The potential for antimalarial activity against Plasmodium falciparum was determined by measuring the incorporation of tritiated hypoxanthine into parasitized red blood cells.
(§2) Stock solutions of the test compounds and the reference drug chloroquine (CQ) (Sigma Chemicals C-6628, Lot #059H0919) were prepared in silanized glass vials with AquaSil™ (Pierce, USA) to minimize absorption of the compounds to glassware. All test compounds were dissolved in DMSO (Sigma Cat No. #D8418) to 1 mM concentration, whereas CQ was dissolved in 50% methanol at a concentration of 1.6 mg/ml (base). Stock solutions were stored at −20° C.
(§3) The P. falciparum laboratory adapted strains utilized in this project (Table 1) were in vitro cultured and routinely maintained in RPMI-1640-LPLF complete medium, which contained low concentrations of para-amino benzoic acid (0.0005 mg/L) and folic acid (0.01 mg/L).
(§4) The low concentration of folic acid in RPMI-1640-LPLF prevents inhibition of the compound if its activity targets the parasite's folate metabolic pathway. Parasites were cultured in human red blood cells (RBCs) in vitro at 37° C. in special gas mixture (5% O2, 5% CO2 and 90% N2) as described Trager and Jensen (1979 Science 193:673-675).
(§5) Base cultivation medium consisted of 10.4 g/L RPMI-1640-LPLF powder (Gibco BRL), 5.97 g/L HEPES buffer (MP Biomedicals, USA), 2.0 g/L D-glucose (BDH chemicals, Australia), 0.05 g/L hypoxanthine (Sigma, USA) and 40 mg/L gentamycin (Pfizer, Australia). The pH of the medium was adjusted to 6.9 and the solution was filtered using 0.2 μm pore size (AcroCap, Gelman Science, USA). Complete medium was prepared by adding sodium bicarbonate solution (final concentration, 0.21%) and drug-free heat-inactivated human plasma, pooled from various blood types, obtained from the Australian Red Cross Blood Service (Brisbane) (final concentration, 10%) to the base RPMI-1640-LPLF. For [^3H]-hypoxanthine inhibition growth assay, RPMI-1640-LPLF complete medium which lacked [^3H]-hypoxanthine ([^3H]-RPMI-1640-LPLF) was used to prevent uptake of hypoxanthine by parasites, as radioactive hypoxanthine uptake is measured as a surrogate marker of growth. All complete medium was used within three days of preparation. See DE (Para) SOP 002 for methodology.
(§6) Red blood cells (RBC) were required for P. falciparum parasites to proliferate in vitro. 0 (Rh+) type blood was obtained from the Australian Red Cross Blood Service. The RBC were washed twice in phosphate-buffered saline (PBS) and once in [^3H]-RPMI-1640-LPLF complete medium by centrifugation at 1,500×g for 5 min. Following the final wash, the haematocrit was measured as the percent of RBC to total culture volume. The haematocrit was adjusted to 50% by removing or adding [^3H]-RPMI-LPLF complete medium. See DE (Para) SOP 003 for methodology.
(§7) All P. falciparum strains were grown in RPMI-1640-LPLF complete medium at 4% haematocrit and 1% to 8% parasitaemia at 37° C. in sealed flasks in a gas mixture of 5% O2, 5% CO2 and 90% N2 (BOC Gases, Brisbane, Australia). For drug susceptibility assays cultures were routinely synchronized when the majority of parasites (>85%) were at early trophozoite (ring) stage. Synchronization involved removing the more mature erythrocytic parasite stages by lysis, resulting in the retention only of early trophozoite (ring) stages. Synchronization was performed by re-suspending the infected red blood cell (iRBC) pellet in 5 to 10 times its volume of 5% D-sorbitol (Bacto Laboratories Pty. Ltd., Australia) for 5 min (Lambros and Vanderberg, 1979 J Parasitol 65: 418-420). The mixture was centrifuged (1,500 rpm for 5 min) and the supernatant removed. The iRBC were washed twice using PBS buffer and once using [^3H]-RPMI-LPLF plain medium. Following synchronization, a new culture was prepared with an initial parasitaemia of 1% in RPMI-LPLF complete medium. See DE (Para) SOP 008 for methodology.

The next test has as its system P. falciparum strain W2. Nature of the test: [3H]-hypoxanthine growth inhibition assay, P. falciparum W2. It counts as cell-based. The settings on record: Plasmodium falciparum. The protocol: as §1, §2, §3, §4, §5, §6, §7
The mark [1] stands for this setting: P. falciparum D6 (sensitive to chloroquine and pyrimethamine), [3H]-hypoxanthine incorporation, read-out: D6 IC50.
Where [2] appears, read: P. falciparum W2 (resistant to chloroquine and pyrimethamine), [3H]-hypoxanthine incorporation, read-out: W2 IC50.

As to `CC(C)(C)NCc1cc(C(C)(C)C)cc(-c2ccc(Cl)s2)c1O` [Example 2, 4-(tert-Butyl)-2-((tert-butylamino)methyl)-6-(5-chlorothiophen-2-yl)phenol hydrochloride], the IC50 in the test with P. falciparum strain D6 (setting [1]) is 0.045 µM; in the test with P. falciparum strain W2 (setting [2]), 0.025 µM.
Take `CC(C)(C)NCc1cc(C(C)(C)C)cc(-c2cnc3ccccc3c2)c1O` [Example 3, 4-(tert-Butyl)-2-((tert-butylamino)methyl)-6-(quinolin-3-yl)phenol dihydrochloride]: the IC50 in the test with P. falciparum strain D6 (D6, read-out: D6 IC50) was found to be 0.026 µM; in the test on P. falciparum strain W2 (W2, read-out: W2 IC50), 0.022 µM.
For `CC(C)(C)NCc1cc(C(C)(C)C)cc(-c2cccc3ncccc23)c1O` [Example 4, 4-(tert-Butyl)-2-((tert-butylamino)methyl)-6-(quinolin-5-yl)phenol dihydrochloride], the IC50 in the test on P. falciparum strain D6 (D6, read-out: D6 IC50) is 0.144 µM; in the test on P. falciparum strain W2 (W2, read-out: W2 IC50), 0.2 µM.
For `CC(C)(C)NCc1cc(C(C)(C)C)cc(-c2ccc3ncccc3c2)c1O` [Example 5, 4-(tert-Butyl)-2-((tert-butylamino)methyl)-6-(quinolin-6-yl)phenol dihydrochloride] the same measures were 0.037 µM and 0.025 µM.
Turning to `CC(C)(C)NCc1cc(C(C)(C)C)cc(-c2cc3ccccc3o2)c1O` [Example 6, 2-(Benzofuran-2-yl)-4-(tert-butyl)-6-((tert-butylamino)methyl)phenol hydrochloride], the IC50 in the test on P. falciparum strain D6 (setting [1]) was 0.031 µM; in the test on P. falciparum strain W2 (setting [2]) it was 0.013 µM.
For `CC(C)(C)NCc1cc(C(C)(C)C)cc(-c2cc3ccccc3s2)c1O` [Example 7, 2-(Benzo[b]thiophen-2-yl)-4-(tert-butyl)-6-((tert-butylamino)methyl)phenol hydrochloride] the same measures were 0.018 µM and 0.009 µM.
`CC(C)(C)NCc1cc(C(C)(C)C)cc(-c2ccnc3ccccc23)c1O` [Example 8, 4-(tert-Butyl)-2-((tert-butylamino)methyl)-6-(quinolin-4-yl)phenol dihydrochloride]: the IC50 in the test with P. falciparum strain D6 (D6, read-out: D6 IC50) was found to be 0.109 µM; in the test on P. falciparum strain W2 (W2, read-out: W2 IC50) it was 0.094 µM.
Consider `Cn1nc(C(F)(F)F)cc1-c1cc(C(C)(C)C)cc(CNC(C)(C)C)c1O` [Example 9, 4-(tert-Butyl)-2-((tert-butylamino)methyl)-6-(1-methyl-3-(trifluoromethyl)-1H-pyrazol-5-yl)phenol hydrochloride], for which the figures for the IC50 with P. falciparum strain D6 (setting [1]) and in the test with P. falciparum strain W2 (setting [2]) were 0.094 µM and 0.048 µM, respectively.
In the case of `CC(C)Oc1ccc(-c2cc(C(C)(C)C)cc(CNC(C)(C)C)c2O)cn1` [Example 10, 4-(tert-Butyl)-2-((tert-butylamino)methyl)-6-(6-isopropoxypyridin-3-yl)phenol dihydrochloride], the IC50 was 0.025 µM with P. falciparum strain D6 (D6, read-out: D6 IC50) and 0.011 µM in the test on P. falciparum strain W2 (W2, read-out: W2 IC50).
For `CC(C)(C)NCc1cc(C(C)(C)C)cc(-c2ccc(N)nc2)c1O` [Example 11, 2-(6-Aminopyridin-3-yl)-4-(tert-butyl)-6-((tert-butylamino)methyl)phenol dihydrochloride] the same measures were 0.35 µM and 0.398 µM.
For `COc1ccc(-c2cc(C(C)(C)C)cc(CNC(C)(C)C)c2O)cn1` [Example 12, 4-(tert-Butyl)-2-((tert-butylamino)methyl)-6-(6-methoxypyridin-3-yl)phenol dihydrochloride], the IC50 with P. falciparum strain D6 (D6, read-out: D6 IC50) turned out to be 0.023 µM; in the test with P. falciparum strain W2 (W2, read-out: W2 IC50), 0.014 µM.
Take `CC(C)(C)NCc1cc(C(C)(C)C)cc(-c2cncc3ccccc23)c1O` [Example 13, 4-(tert-Butyl)-2-((tert-butylamino)methyl)-6-(isoquinolin-4-yl)phenol dihydrochloride]: the IC50 in the test with P. falciparum strain D6 (D6, read-out: D6 IC50) was determined as 0.073 µM; with P. falciparum strain W2 (W2, read-out: W2 IC50), 0.085 µM.
Take `CN(C)c1ccc(-c2cc(C(C)(C)C)cc(CNC(C)(C)C)c2O)cn1` [Example 14, 4-(tert-Butyl)-2-((tert-butylamino)methyl)-6-(6-(dimethylamino)pyridin-3-yl)phenol dihydrochloride]: the IC50 with P. falciparum strain D6 (D6, read-out: D6 IC50) worked out at 0.023 µM; in the test with P. falciparum strain W2 (W2, read-out: W2 IC50), 0.014 µM.
Take `CC(C)(C)NCc1cc(C(C)(C)C)cc(-c2ccc(N3CCCC3)nc2)c1O` [Example 15, 4-(tert-Butyl)-2-((tert-butylamino)methyl)-6-(6-(pyrrolidin-1-yl)pyridin-3-yl)phenol dihydrochloride]: the IC50 in the test on P. falciparum strain D6 (D6, read-out: D6 IC50) turned out to be 0.024 µM; in the test with P. falciparum strain W2 (W2, read-out: W2 IC50) it was 0.016 µM.
The matching figures for `COc1cc(-c2cc(C(C)(C)C)cc(CNC(C)(C)C)c2O)ccn1` [Example 16, 4-(tert-Butyl)-2-((tert-butylamino)methyl)-6-(2-methoxypyridin-4-yl)phenol dihydrochloride]: 0.026 µM and 0.011 µM.
For `COc1cncc(-c2cc(C(C)(C)C)cc(CNC(C)(C)C)c2O)c1` [Example 17, 4-(tert-Butyl)-2-((tert-butylamino)methyl)-6-(5-methoxypyridin-3-yl)phenol dihydrochloride] the same measures were 0.03 µM and 0.025 µM.
With `CC(C)(C)NCc1cc(C(C)(C)C)cc(-c2cncc(C(F)(F)F)c2)c1O` [Example 18, 4-(tert-Butyl)-2-((tert-butylamino)methyl)-6-(5-(trifluoromethyl)pyridin-3-yl)phenol 1.4 hydrochloride], the IC50 with P. falciparum strain D6 (setting [1]) was 0.025 µM; in the test with P. falciparum strain W2 (setting [2]) it was 0.012 µM.
Take `CC(C)(C)NCc1cc(C(C)(C)C)cc(-c2ccnc(C(F)(F)F)c2)c1O` [Example 20, 4-(tert-Butyl)-2-((tert-butylamino)methyl)-6-(2-(trifluoromethyl)pyridin-4-yl)phenol hydrochloride]: the results for the IC50 in the test with P. falciparum strain D6 (setting [1]) and in the test on P. falciparum strain W2 (setting [2]) were 0.021 µM and 0.009 µM, respectively.
On to `CC(C)(C)NCc1cc(C(C)(C)C)cc(-c2cncc(Cl)c2)c1O` [Example 21, 4-(tert-Butyl)-2-((tert-butylamino)methyl)-6-(5-chloropyridin-3-yl)phenol dihydrochloride], for which the IC50 was found to be 0.017 µM with P. falciparum strain D6 (D6, read-out: D6 IC50) and 0.008 µM with P. falciparum strain W2 (W2, read-out: W2 IC50).
`CC(C)(C)NCc1cc(C(C)(C)C)cc(-c2ccc(C(C)(C)C)nc2)c1O` [Example 22, 4-(tert-Butyl)-2-(6-(tert-butyl)pyridin-3-yl)-6-((tert-butylamino)methyl)phenol dihydrochloride]: the IC50 is 0.064 µM in the test on P. falciparum strain D6 (D6, read-out: D6 IC50) and 0.024 µM in the test on P. falciparum strain W2 (W2, read-out: W2 IC50).
As to `CC(C)(C)NCc1cc(C(C)(C)C)cc(-c2ccc(Cl)nc2)c1O` [Example 23, 4-(tert-Butyl)-2-((tert-butylamino)methyl)-6-(6-chloropyridin-3-yl)phenol hydrochloride], the figures for the half-inhibitory concentration (IC50) with P. falciparum strain D6 (setting [1]) and with P. falciparum strain W2 (setting [2]) were 0.019 µM and 0.012 µM, respectively.
With `Cc1ccc(-c2cc(C(C)(C)C)cc(CNC(C)(C)C)c2O)nc1` [Example 25, 4-(tert-Butyl)-2-((tert-butylamino)methyl)-6-(5-methylpyridin-2-yl)phenol dihydrochloride], the IC50 is at least 20 µM in the test with P. falciparum strain D6 (D6, read-out: D6 IC50) and at least 20 µM in the test with P. falciparum strain W2 (W2, read-out: W2 IC50).
In the case of `CC(C)(C)NCc1cc(C(C)(C)C)cc(-c2ccc(F)cn2)c1O` [Example 26, 4-(tert-Butyl)-2-((tert-butylamino)methyl)-6-(5-fluoropyridin-2-yl)phenol 1.35hydrochloride], the values for the IC50 with P. falciparum strain D6 (setting [1]) and with P. falciparum strain W2 (setting [2]) were 1.33 µM and 0.598 µM, respectively.
Turning to `CC(C)(C)NCc1cc(C(C)(C)C)cc(-c2ncccc2F)c1O` [Example 27, 4-(tert-Butyl)-2-((tert-butylamino)methyl)-6-(3-fluoropyridin-2-yl)phenol 1.7hydrochloride], the IC50 in the test on P. falciparum strain D6 (setting [1]) stood at 6.86 µM; with P. falciparum strain W2 (setting [2]), 3.44 µM.
